The text below walks through data of publication PMC5552351, “Bacteriological profiling of diphenylureas as a novel class of antibiotics against methicillin-resistant Staphylococcus aureus” (PLoS ONE, 2017).

Converted amounts (≈) assume the structure as drawn.

For data set [1], the system named is Bacillus subtilis. Put plainly: Bacterial Cytological Profiling (BCP). As to conditions: two hours, LB-MSM osmotically buffered media, 37 °C. The format is cell-based. The procedure: B. subtilis cells were grown in Luria Bertani (LB) medium at 37 °C until the optical density at 600 nm (OD600) was ~0.20. Cells were then left untreated or treated with compound 1 or control antibiotics in the presence of methylsulfonylmethane (MSM), as described previously. After two hours, cells were stained with FM 4−64 (1 μg/mL) to visualize cell membranes; DAPI (1 μg/ml) to visualize DNA, and SYTOX Green (1 μg/mL), a vital stain which is normally excluded from cells with an intact membrane but brightly stains cells that are lysed. Images were collected using a Delta Vision Spectris Deconvolution microscope, as described previously.

In data set [2] the test system is S. epidermidis NRS101. Nature of the data set: broth microdilution MIC. Format: cell-based. As to conditions: Staphylococcus epidermidis; S. epidermidis NRS101, biofilm-forming strain; read-out: MIC. The procedure:
(§1) The broth microdilution assay was employed to determine the MIC of compounds 1, 2, and vancomycin against five MRSA strains, four VRSA strains, one highly mupirocin-resistant S. aureus strain, one biofilm-forming S. aureus (ATCC 6538) strain, and one biofilm-forming methicillin-resistant S. epidermidis strain, as per the guidelines of the Clinical and Laboratory Standards Institute (CLSI). […] The MBC was determined by plating an aliquot (5 μL) from wells with no growth onto TSA plates. Plates were incubated at 37 °C for 19 hours before recording the MBC (concentration where no growth was observed on TSA plates).
A general note: In broth dilution the organism is exposed to a series of concentrations in liquid medium.

The subject of data set [3] is S. aureus ATCC 6538. Nature of the data set: broth microdilution MIC. The format is cell-based. Conditions: Staphylococcus aureus, ATCC6538; S. aureus ATCC 6538, biofilm-forming strain; read-out: MIC. How it is done:
as §1

Data set [4] concerns S. aureus NRS107. Nature of the data set: broth microdilution MIC/MBC. The format is cell-based. As to conditions: Staphylococcus aureus, S. aureus NRS107; for MBC: read-out: MBC; for MIC: read-out: MIC. How it is done:
as §1

Data set [5] concerns VRS10. Put plainly: broth microdilution MIC/MBC. Format: cell-based. Conditions: Staphylococcus aureus, VRS10, vancomycin-resistant S. aureus; for MBC: read-out: MBC; for MIC: read-out: MIC. The procedure:
as §1

Data set [6] deals with VRS10. Put plainly: microbe, parasite or virus in culture. Format: cell-based, Staphylococcus aureus. As to conditions: VRS10, compound at ½ × MIC. How it is done: (§2) CAMHB was inoculated with strain VRS4 or strain VRS10 (5×10^5 CFU/mL), as described previously, with the following modifications. Aliquots ([…]) of the bacterial suspension were divided into micro-centrifuge tubes and compounds 1 or 2 (at ½ × MIC) were introduced into each tube. After 30 minutes of incubation at room temperature, samples from each tube were transferred to a new micro-centrifuge tube, prior to addition of vancomycin (at 128 μg/mL). Plates containing the test agents and bacteria were then incubated at 37 °C for 20–22 hours after which the MIC value was determined. A fold-reduction was calculated by comparing the MIC of vancomycin compared to the MIC of vancomycin given in combination with compounds 1 or 2 (at ½ × MIC).

For data set [7], the system named is human epithelial colorectal (Caco-2) cell line. Put plainly: MTS cytotoxicity assay. Conditions: Caco-2, MTS assay, highest concentration tested. The format is cell-based. The procedure: Compounds 1 and 2 were assayed (at concentrations of 16 μg/mL, 32 μg/mL, 64 µg/mL, and 128 μg/mL) against a human epithelial colorectal (Caco-2) cell line (American Type Culture Collection, ATCC HTB-37) using the MTS assay. Cells were cultured in DMEM supplemented with penicillin-streptomycin, nonessential amino acids (1%), and FBS (10%), at 37 °C with CO2 (5%). The cells were incubated with compounds (in triplicate) or DMSO (negative control) in a 96-well tissue culture-treated plate at 37 °C with CO2 (5%) for two hours. The MTS assay reagent (Promega, Madison, WI, USA) was subsequently added to each well and plates were incubated for four hours at 37 °C with CO2 (5%). The quantity of viable cells (at OD490) after treatment was expressed as a percentage of the viability of DMSO-treated control cells (average of triplicate wells ± standard deviation). The toxicity data was analyzed via a two-way ANOVA, with post hoc Dunnet’s multiple comparisons test (n = 3, P < 0.05), utilizing GraphPad Prism 6.0 (GraphPad Software, La Jolla, CA).

Data set [8] relates to S. aureus NRS107 (RN4220). Put plainly: accumulation of UDP-N-acetylmuramyl pentapeptide (HPLC-MS). Format: cell-based, Staphylococcus aureus. As to conditions: 10 × MIC, 30 minutes. The procedure:
The accumulation of UDP-N-acetylmuramyl pentapeptide was detected using a procedure described in a previous study, with the following modifications. S. aureus NRS107 (RN4220), in early logarithmic growth stage (OD600 ~ 0.60), was incubated with 130 μg/mL chloramphenicol for 15 minutes at 37°C. […] Untreated samples served as a negative control. Samples were centrifuged at 10,000 rpm for five minutes, the supernatant discarded, and the pellet re-suspended in sterile deionzined water (1 mL). The pellet was boiled at […] for 30 minutes before samples were chilled on ice for 10 minutes. UDP-N-acetylmuramyl-pentapeptide was measured using an Agilent High Performance Liquid Chromatography coupled to a time-of-flight Mass Spectrometer (HPLC-MS). A Waters XBridge Phenyl (2.1 × 100 mm, 3.5 μm) chromatography column was used, with mobile phases of water, 0.1% formic acid (Buffer A) and acetonitrile, 0.1% formic acid (Buffer B). A gradient of 5–20% Buffer B over 14 minutes was used, with a flow rate of 0.3 mL/min. An electrospray source was used, in positive ionization mode. Extracted Ion Chromatograms (EIC) were generated at a mass-to-charge ratio (m/z) of 1150.3588 (20 ppm window). Mass error for UDP-N-acetylmuramyl-pentapeptide was <1 ppm.

Data set [9] has as its system MRSA. The arrangement: method as in PMID 28249208. Conditions: C. elegans; ref [21]; cited from earlier work.
Data set [10] deals with VRS4. Nature of the data set: microbe, parasite or virus in culture. Format: cell-based, Staphylococcus aureus. Conditions: VRS4, compound at ½ × MIC. How it is done: as §2

By MBC is commonly meant the lowest tested concentration that kills the bacteria rather than only halting them. `C/C(=N\NC(=N)N)c1ccc(NC(=O)Nc2ccc(OCCC(C)C)cc2)cc1` [compound 1]: the “cytological profile (cell morphology)” value in data set [1] was “cell shape defects”. Also, the MIC in data set [2] stood at 2 µg/mL (≈ 5.04 µM); in data set [3] it was 4 µg/mL (≈ 10.1 µM); in [4], 4 µg/mL (≈ 10.1 µM); in data set [5], 4 µg/mL (≈ 10.1 µM). Moreover, the MBC in data set [4] and in data set [5] was 4 µg/mL (≈ 10.1 µM) in each case. The “Fold re-sensitization of VRSA to vancomycin” value in data set [6] is recorded as 3-fold. Moreover, the “non-toxic up to (concentration)” value in data set [7] was no less than 128 µg/mL. The UDP-N-acetylmuramyl pentapeptide accumulation result in data set [8] is given as “notable increase”.
As to `C/C(=N\NC(=N)N)c1ccc(NC(=O)Nc2ccc(OC3CCCCCC3)cc2)cc1` [compound 2], in [9], the “reducing the burden of MRSA in infected worms” value is “superior to vancomycin”. The MIC in data set [2] was found to be 4 µg/mL (≈ 9.47 µM); in data set [3], 8 µg/mL (≈ 18.9 µM); in data set [4], 8 µg/mL (≈ 18.9 µM); in data set [5] it was 4 µg/mL (≈ 9.47 µM). Besides, the MBC in data set [4] and in data set [5] was 8 µg/mL (≈ 18.9 µM) in each case. Further, in data set [10], the “Fold re-sensitization of VRSA to vancomycin” value was 7-fold. Further, the “non-toxic up to (concentration)” value in data set [7] was no less than 128 µg/mL.
